Where two headings read alike, the source gives them in different places.
Tested on: human colon tumour cell line HT29
Assay: Cellular Assay (phosphohistone H3 Ser10 mitotic marker, HT29)
Format: cell-based
Settings: read-out: IC50 (cellular assay, phosphohistone H3)
Experimental: Chromosome condensation in mitosis is accompanied by phosphorylation of histone H3 on serine 10.
After 24 hours, cells were fixed in 3.7% (v/v) formaldehyde then permeabilised and blocked for 10 minutes in 100 μl 0.5% (v/v) Triton X-100, 1% (w/v) bovine serum albumin (BSA) in phosphate buffered saline (PBS). […] The raw assay data were analysed by non-linear regression analysis and used to determine an IC50 value for each compound.

SMILES	IC50 (HT-29, 24 h, HT29 cells) [nM]	IC50 (HT-29, HT29 cells, 24 h) [nM]
CN1C(=O)C2(CC2)CN(C2CCCCC2)c2nc(Nc3cc(F)c(C(=O)NC4CCC(N(C)C)CC4)cc3Cl)ncc21 (stereo not shown) [Example 437, 5-chloro-4-(9′-cyclohexyl-5′-methyl-6′-oxo-5′,6′,8′,9′-tetrahydrospiro[cyclopropane-1,7′-pyrimido[5,4-b][1,4]diazepine]-2′-ylamino)-N-(4-dimethylaminocyclohexyl)-2-fluoro-benzamide]	< 300	
COc1cc(C(=O)NCC(C)(C)CN(C)C)ccc1Nc1ncc2c(n1)N(C1CCCC1)CC(C)(C)C(=O)N2C [Example 351, 4-[(2-cyclopentyl-4,4,6-trimethyl-5-oxo-2,6,9,11-tetrazabicyclo[5.4.0]undeca-7,9,11-trien-10-yl)amino]-N-(3-dimethylamino-2,2-dimethyl-propyl)-3-methoxy-benzamide]	< 300	
COc1cc(C(=O)NC2CCN(C)C3CCCCC23)ccc1Nc1ncc2c(n1)N(C1CCCC1)CCC(=O)N2C (single isomer, unassigned) [Example 342, 4-[(2-cyclopentyl-6-methyl-5-oxo-2,6,9,11-tetrazabicyclo[5.4.0]undeca-7,9,11-trien-10-yl)amino]-3-methoxy-N-(1-methyl-3,4,4a,5,6,7,8,8a-octahydro-2H-quinolin-4-yl)benzamide]	< 300	
CN(C)CCNC(=O)c1ccc(Nc2ncc3c(n2)N(C2CCCC2)CC2(CC2)C(=O)N3C)c(Cl)c1 [Example 390, 3-chloro-4-(9′-cyclopentyl-5′-methyl-6′-oxo-5′,6′,8′,9′-tetrahydrospiro[cyclopropane-1,7′-pyrimido[5,4-b][1,4]diazepine]-2′-ylamino)-N-(2-dimethylaminoethyl)benzamide]	< 1000	
CCN1CCC(NC(=O)c2cc(Cl)c(Nc3ncc4c(n3)N(C(C)C)CC(C)(C)C(=O)N4C)cc2F)CC1 [Example 290, 5-chloro-N-(1-ethyl-4-piperidyl)-2-fluoro-4-[(4,4,6-trimethyl-5-oxo-2-propan-2-yl-2,6,9,11-tetrazabicyclo[5.4.0]undeca-7,9,11-trien-10-yl)amino]benzamide]	< 1000	
CN1CCC(NC(=O)c2cc(F)c(Nc3ncc4c(n3)N(C3CCCC3)CC3(CC3)C(=O)N4C)cc2F)CC1 [Example 396, 4-(9′-cyclopentyl-5′-methyl-6′-oxo-5′,6′,8′,9′-tetrahydrospiro[cyclopropane-1,7′-pyrimido[5,4-b][1,4]diazepine]-2′-ylamino)-2,5-difluoro-N-(1-methyl-4-piperidyl)benzamide]	< 300	
CN1C(=O)CCN(C2CCCCC2)c2nc(Nc3cc(F)c(C(=O)NCCN4CCCC4)cc3F)ncc21 [Example 416, 4-[(2-cyclohexyl-6-methyl-5-oxo-2,6,9,11-tetrazabicyclo[5.4.0]undeca-7,9,11-trien-10-yl)amino]-2,5-difluoro-N-(2-pyrrolidin-1-ylethyl)benzamide]	< 1000	
CN1C(=O)C2(CC2)CN(C2CCCC2)c2nc(Nc3ccc(C(=O)NC4C[C@H]5CCC[C@@H](C4)N5C)cc3F)ncc21 (stereo partly drawn) [Example 388, 4-(9′-cyclopentyl-5′-methyl-6′-oxo-5′,6′,8′,9′-tetrahydrospiro[cyclopropane-1,7′-pyrimido[5,4-b][1,4]diazepine]-2′-ylamino)-3-fluoro-N-[(1S,5R)-9-methyl-9-azabicyclo[3.3.1]non-7-yl]benzamide]	< 300	
COc1cc(C(=O)N[C@@H]2CCN(C)C2)ccc1Nc1ncc2c(n1)N(C1CCCCC1)CCC(=O)N2C [Example 421, 4-[(2-cyclohexyl-6-methyl-5-oxo-2,6,9,11-tetrazabicyclo[5.4.0]undeca-7,9,11-trien-10-yl)amino]-3-methoxy-N-[(3R)-1-methylpyrrolidin-3-yl]benzamide]	< 300	
COc1cc(C(=O)NC2CCCCN(C)C2)ccc1Nc1ncc2c(n1)N(C1CCCC1)CCC(=O)N2C (stereo not shown) [Example 453, 4-[(2-cyclopentyl-6-methyl-5-oxo-2,6,9,11-tetrazabicyclo[5.4.0]undeca-7,9,11-trien-10-yl)amino]-3-methoxy-N-(1-methylazepan-3-yl)benzamide]	< 300	
CCC1(CC)CN(C(C)C)c2nc(Nc3ccc(C(=O)NCC(C)(C)CN4CCCC4)cc3OC)ncc2N(C)C1=O [Example 309, 4-[(4,4-diethyl-6-methyl-5-oxo-2-propan-2-yl-2,6,9,11-tetrazabicyclo[5.4.0]undeca-7,9,11-trien-10-yl)amino]-N-(2,2-dimethyl-3-pyrrolidin-1-yl-propyl)-3-methoxy-benzamide]	< 1000	
CC(C)N1CC2(CC2)C(=O)N(C)c2cnc(Nc3cc(F)c(C(=O)N[C@@H]4CCN(C)C4)cc3Cl)nc21 [Example 310, (R)-5-chloro-2-fluoro-4-(9′-isopropyl-5′-methyl-6′-oxo-5′,6′,8′,9′-tetrahydrospiro[cyclopropane-1,7′-pyrimido[5,4-b][1,4]diazepine]-2′-ylamino)-N-(1-methylpyrrolidin-3-yl)benzamide]	< 1000	
COc1cc(C(=O)NCCN(C)C)ccc1Nc1ncc2c(n1)N(C(C)C)CC(C)(C)C(=O)N2C [Example 302, N-(2-dimethylaminoethyl)-3-methoxy-4-[(4,4,6-trimethyl-5-oxo-2-propan-2-yl-2,6,9,11-tetrazabicyclo[5.4.0]undeca-7,9,11-trien-10-yl)amino]benzamide]	< 1000	
CCN1CCC(NC(=O)c2cc(F)c(Nc3ncc4c(n3)N(C3CCCC3)CC3(CC3)C(=O)N4C)cc2F)CC1 [Example 395, 4-(9′-cyclopentyl-5′-methyl-6′-oxo-5′,6′,8′,9′-tetrahydrospiro[cyclopropane-1,7′-pyrimido[5,4-b][1,4]diazepine]-2′-ylamino)-N-(1-ethyl-4-piperidyl)-2,5-difluoro-benzamide]	< 300	
CN1C(=O)CCN(C2CCCCC2)c2nc(Nc3ccc(C(=O)NC4C[C@H]5CCC[C@@H](C4)N5C)cc3F)ncc21 (stereo partly drawn) [Example 417, 4-[(2-cyclohexyl-6-methyl-5-oxo-2,6,9,11-tetrazabicyclo[5.4.0]undeca-7,9,11-trien-10-yl)amino]-3-fluoro-N-[(1S,5R)-9-methyl-9-azabicyclo[3.3.1]non-7-yl]benzamide]	< 300	
COc1cc(C(=O)NCCCN(C)C)ccc1Nc1ncc2c(n1)N(C1CCCC1)CC(C)(C)C(=O)N2C [Example 357, 4-[(2-cyclopentyl-4,4,6-trimethyl-5-oxo-2,6,9,11-tetrazabicyclo[5.4.0]undeca-7,9,11-trien-10-yl)amino]-N-(3-dimethylaminopropyl)-3-methoxy-benzamide]	< 300	
CCN1CCC(NC(=O)c2cc(Cl)c(Nc3ncc4c(n3)N(C(C)C)CC3(CC3)C(=O)N4C)cc2F)CC1 [Example 311, 5-chloro-N-(1-ethylpiperidin-4-yl)-2-fluoro-4-(9′-isopropyl-5′-methyl-6′-oxo-5′,6′,8′,9′-tetrahydrospiro[cyclopropane-1,7′-pyrimido[5,4-b][1,4]diazepine]-2′-ylamino)benzamide]	< 1000	
COc1cc(C(=O)N[C@@H]2CCN(C)C2)c(F)cc1Nc1ncc2c(n1)N(C1CCCC1)CC1(CC1)C(=O)N2C [Example 399, 4-(9′-cyclopentyl-5′-methyl-6′-oxo-5′,6′,8′,9′-tetrahydrospiro[cyclopropane-1,7′-pyrimido[5,4-b][1,4]diazepine]-2′-ylamino)-2-fluoro-5-methoxy-N-[(3R)-1-methylpyrrolidin-3-yl]benzamide]	< 300	
CN1CCC(NC(=O)c2ccc(Nc3ncc4c(n3)N(C3CCCC3)CCC(=O)N4C)cc2)CC1 [Example 2, 4-[(2-cyclopentyl-6-methyl-5-oxo-2,6,9,11-tetrazabicyclo[5.4.0]undeca-8,10,12-trien-10-yl)amino]-N-(1-methyl-4-piperidyl)benzamide]		< 300
CN1CCC(NC(=O)c2ccc(Nc3ncc4c(n3)N(C3CCCC3)CC3(CC3)C(=O)N4C)c3c2OCO3)CC1 [Example 408, 7-(9′-cyclopentyl-5′-methyl-6′-oxo-5′,6′,8′,9′-tetrahydrospiro[cyclopropane-1,7′-pyrimido[5,4-b][1,4]diazepine]-2′-ylamino)-N-(1-methyl-4-piperidyl)benzo[1,3]dioxole-4-carboxamide]	< 300	
CN1CCC(NC(=O)c2ccc(Nc3ncc4c(n3)N(C3CCCC3)CCC(=O)N4C)c3c2OCO3)CC1 [Example 341, 7-[(2-cyclopentyl-6-methyl-5-oxo-2,6,9,11-tetrazabicyclo[5.4.0]undeca-7,9,11-trien-10-yl)amino]-N-(1-methyl-4-piperidyl)benzo[1,3]dioxole-4-carboxamide]	< 300	
COc1cc(C(=O)NC2CCC(N3CCC3)CC2)ccc1Nc1ncc2c(n1)N(C1CCCC1)CCC(=O)N2C (stereo not shown) [Example 346, N-[4-(azetidin-1-yl)cyclohexyl]-4-[(2-cyclopentyl-6-methyl-5-oxo-2,6,9,11-tetrazabicyclo[5.4.0]undeca-7,9,11-trien-10-yl)amino]-3-methoxy-benzamide]	< 300	
CN1C(=O)C2(CC2)CN(C2CCCC2)c2nc(Nc3cc(F)c(C(=O)NC4CCC(N(C)C)CC4)cc3Cl)ncc21 (stereo not shown) [Example 394, 5-chloro-4-(9′-cyclopentyl-5′-methyl-6′-oxo-5′,6′,8′,9′-tetrahydrospiro[cyclopropane-1,7′-pyrimido[5,4-b][1,4]diazepine]-2′-ylamino)-N-(4-dimethylaminocyclohexyl)-2-fluoro-benzamide]	< 300	
COc1cc(C(=O)NCCN2CCCC2)c(F)cc1Nc1ncc2c(n1)N(C1CCCCC1)CCC(=O)N2C [Example 425, 4-[(2-cyclohexyl-6-methyl-5-oxo-2,6,9,11-tetrazabicyclo[5.4.0]undeca-7,9,11-trien-10-yl)amino]-2-fluoro-5-methoxy-N-(2-pyrrolidin-1-ylethyl)benzamide]	< 300	
CN1CC[C@@H](NC(=O)c2cc(F)c(Nc3ncc4c(n3)N(C3CCCC3)CCC(=O)N4C)cc2F)C1 [Example 334, 4-[(2-cyclopentyl-6-methyl-5-oxo-2,6,9,11-tetrazabicyclo[5.4.0]undeca-7,9,11-trien-10-yl)amino]-2,5-difluoro-N-[(3R)-1-methylpyrrolidin-3-yl]benzamide]	< 300	

— patent publication US7709471B2, “Compounds” (AstraZeneca AB, priority 2006, dated 2010)
